What was measured:
Assay type in all cases: functional
[1] = tested on: SNB-19; experiment: Growth inhibition of human SNB19 cells assessed as cell growth at 10^-6 M by sulforhodamine B assay; conditions: read-out: Activity
[2] = tested on: COLO 205; experiment: Growth inhibition of human COLO205 cells assessed as cell growth at 10^-4 M by sulforhodamine B assay; conditions: read-out: Activity
[3] = tested on: A549; experiment: Growth inhibition of human A549/ATCC cells by sulforhodamine B assay
[4] = tested on: HOP-62; experiment: Growth inhibition of human HOP62 cells assessed as cell growth at 10^-8 M by sulforhodamine B assay; conditions: read-out: Activity
[5] = tested on: HT-29; experiment: Growth inhibition of human HT-29 cells assessed as cell growth at 10^-8 M by sulforhodamine B assay; conditions: read-out: Activity
[6] = tested on: OVCAR-3; experiment: Growth inhibition of human OVCAR3 cells assessed as cell growth at 10^-8 M by sulforhodamine B assay; conditions: read-out: Activity
[7] = tested on: MDA-MB-231; experiment: Growth inhibition of human MDA-MB-231 cells assessed as cell growth at 10^-8 M by sulforhodamine B assay; conditions: read-out: Activity
[8] = tested on: RPMI-8226; experiment: Growth inhibition of human RPMI8226 cells assessed as cell growth at 10^-7 M by sulforhodamine B assay; conditions: read-out: Activity
[9] = tested on: NCI-H322M; experiment: Growth inhibition of human NCI-H322M cells assessed as cell growth at 10^-6 M by sulforhodamine B assay; conditions: read-out: Activity
[10] = tested on: 786-0; experiment: Growth inhibition of human 786-0 cells assessed as cell growth at 10^-4 M by sulforhodamine B assay; conditions: read-out: Activity
[11] = tested on: U-251; experiment: Growth inhibition of human U251 cells assessed as cell growth at 10^-4 M by sulforhodamine B assay; conditions: read-out: Activity
[12] = tested on: MCF7; experiment: Growth inhibition of human MCF7 cells by sulforhodamine B assay
[13] = tested on: MOLT-4; experiment: Growth inhibition of human MOLT4 cells assessed as cell growth at 10^-4 M by sulforhodamine B assay; conditions: read-out: Activity
[14] = tested on: T47D; experiment: Growth inhibition of human T47D cells by sulforhodamine B assay
[15] = tested on: BT-549; experiment: Growth inhibition of human BT549 cells assessed as cell growth at 10^-4 M by sulforhodamine B assay; conditions: read-out: Activity
[16] = tested on: SK-MEL-5; experiment: Growth inhibition of human SK-MEL-5 cells assessed as cell growth at 10^-7 M by sulforhodamine B assay; conditions: read-out: Activity
[17] = Growth inhibition of human HCC2998 cells assessed as cell growth at 10^-6 M by sulforhodamine B assay; conditions: HCC 2998, read-out: Activity
[18] = tested on: HL-60(TB); experiment: Growth inhibition of human HL-60(TB) cells assessed as cell growth at 10^-4 M by sulforhodamine B assay; conditions: read-out: Activity
[19] = tested on: SW-620; experiment: Growth inhibition of human SW620 cells by sulforhodamine B assay
[20] = tested on: MDA-MB-468; experiment: Growth inhibition of human MDA-MB-468 cells by sulforhodamine B assay
[21] = tested on: M14; experiment: Growth inhibition of human M14 cells assessed as cell growth at 10^-7 M by sulforhodamine B assay; conditions: read-out: Activity
[22] = tested on: HL-60(TB); experiment: Growth inhibition of human HL-60(TB) cells by sulforhodamine B assay
[23] = tested on: MDA-MB-231; experiment: Growth inhibition of human MDA-MB-231 cells assessed as cell growth at 10^-6 M by sulforhodamine B assay; conditions: read-out: Activity
[24] = tested on: T47D; experiment: Growth inhibition of human T47D cells assessed as cell growth at 10^-6 M by sulforhodamine B assay; conditions: read-out: Activity
[25] = tested on: HT-29; experiment: Growth inhibition of human HT-29 cells by sulforhodamine B assay
[26] = tested on: UACC-257; experiment: Growth inhibition of human UACC257 cells assessed as cell growth at 10^-4 M by sulforhodamine B assay; conditions: read-out: Activity
[27] = tested on: OVCAR-4; experiment: Growth inhibition of human OVCAR4 cells assessed as cell growth at 10^-6 M by sulforhodamine B assay; conditions: read-out: Activity
[28] = tested on: CAKI-1; experiment: Growth inhibition of human CAKI-1 cells assessed as cell growth at 10^-6 M by sulforhodamine B assay; conditions: read-out: Activity
[29] = tested on: SF-268; experiment: Growth inhibition of human SF268 cells assessed as cell growth at 10^-8 M by sulforhodamine B assay; conditions: read-out: Activity
[30] = tested on: COLO 205; experiment: Growth inhibition of human COLO205 cells assessed as cell growth at 10^-6 M by sulforhodamine B assay; conditions: read-out: Activity
[31] = tested on: SK-OV-3; experiment: Growth inhibition of human SKOV3 cells by sulforhodamine B assay
[32] = tested on: HCT-15; experiment: Growth inhibition of human HCT15 cells by sulforhodamine B assay
[33] = tested on: NCI-H226; experiment: Growth inhibition of human NCI-H226 cells assessed as cell growth at 10^-8 M by sulforhodamine B assay; conditions: read-out: Activity
[34] = tested on: 786-0; experiment: Growth inhibition of human 786-0 cells assessed as cell growth at 10^-7 M by sulforhodamine B assay; conditions: read-out: Activity
[35] = tested on: MDA-MB-435; experiment: Growth inhibition of human MDA-MB-435 cells by sulforhodamine B assay
[36] = tested on: NCI-H522; experiment: Growth inhibition of human NCI-H522 cells assessed as cell growth at 10^-6 M by sulforhodamine B assay; conditions: read-out: Activity
[37] = tested on: MDA-MB-435; experiment: Growth inhibition of human MDA-MB-435 cells assessed as cell growth at 10^-7 M by sulforhodamine B assay; conditions: read-out: Activity
[38] = tested on: PC-3; experiment: Growth inhibition of human PC3 cells assessed as cell growth at 10^-6 M by sulforhodamine B assay; conditions: read-out: Activity
[39] = read-out: LC50 (the source's name)
[40] = read-out: pLC50 (the source's name) (converted)

With `CC(C)=CC(=O)O[C@@H]1CC(C)(C)C[C@H]2C3=CC[C@@H]4[C@@]5(C)CC[C@H](O)C(C)(C)[C@@H]5CC[C@@]4(C)[C@]3(C)CC[C@@]12C(=O)O` [Reduced Lantadene B] the growth at 1 µM [1] was 86%, the growth at 100 µM [2] was -52% and the GI50 ([3]; read-out: GI50) was 0.438 µM. For the same compound, the CC50 [3, 39] was 82.4 µM, the TGI ([3]; read-out: TGI) was 14.9 µM and the GI50 ([3]; read-out: pGI50 (converted)) was 0.437 µM. For the same compound, the CC50 [3, 40] was 83.2 µM, the TGI ([3]; read-out: pTGI (converted)) was 14.8 µM and the growth at 0.01 µM [4] was 85%. It also gave a growth at 0.01 µM [5] of 91%, a growth at 0.01 µM [6] of 104% and a growth at 0.01 µM [7] of 111%. For the same compound, the growth at 0.1 µM [8] was 92%, the growth at 1 µM [9] was 94% and the growth at 100 µM [10] was -73%. The growth at 100 µM [11] was -61%, the GI50 ([12]; read-out: GI50) was 6.18 µM and the CC50 [12, 39] was over 100 µM. For the same compound, the TGI ([12]; read-out: TGI) was 30.3 µM, the GI50 ([12]; read-out: pGI50 (converted)) was 6.17 µM and the CC50 [12, 40] was over 100 µM. It also gave a TGI ([12]; read-out: pTGI (converted)) of 30.2 µM, a growth at 100 µM [13] of -43% and a GI50 ([14]; read-out: GI50) of 16.7 µM. The CC50 [14, 39] was over 100 µM, the TGI ([14]; read-out: TGI) was 63.4 µM and the GI50 ([14]; read-out: pGI50 (converted)) was 16.6 µM. It also gave a CC50 [14, 40] of over 100 µM, a TGI ([14]; read-out: pTGI (converted)) of 63.1 µM and a growth at 100 µM [15] of -65%. It also gave a growth at 0.1 µM [16] of 91%, a growth at 1 µM [17] of 96% and a growth at 100 µM [18] of -52%. The GI50 ([19]; read-out: GI50) was 5.69 µM, the CC50 [19, 39] was over 100 µM and the TGI ([19]; read-out: TGI) was 52.6 µM. For the same compound, the GI50 ([19]; read-out: pGI50 (converted)) was 5.75 µM, the CC50 [19, 40] was over 100 µM and the TGI ([19]; read-out: pTGI (converted)) was 52.5 µM. It also gave a GI50 ([20]; read-out: GI50) of 4.17 µM, a CC50 [20, 39] of 57.1 µM and a TGI ([20]; read-out: TGI) of 20.2 µM. It also gave a GI50 ([20]; read-out: pGI50 (converted)) of 4.17 µM, a CC50 [20, 40] of 57.5 µM and a TGI ([20]; read-out: pTGI (converted)) of 20 µM. The growth at 0.1 µM [21] was 90%, the GI50 ([22]; read-out: GI50) was 2.52 µM and the CC50 [22, 39] was 86.3 µM. The TGI ([22]; read-out: TGI) was 6.86 µM, the GI50 ([22]; read-out: pGI50 (converted)) was 2.51 µM and the CC50 [22, 40] was 87.1 µM. For the same compound, the TGI ([22]; read-out: pTGI (converted)) was 6.92 µM, the growth at 1 µM [23] was 85% and the growth at 1 µM [24] was 96%. It also gave a GI50 ([25]; read-out: GI50) of 4.24 µM, an LC50 (50% cell kill) ([25]; read-out: LC50) of over 100 µM and a TGI ([25]; read-out: TGI) of 27.1 µM. For the same compound, the GI50 ([25]; read-out: pGI50 (converted)) was 4.27 µM, the LC50 (50% cell kill) ([25]; read-out: pLC50 (converted)) was over 100 µM and the TGI ([25]; read-out: pTGI (converted)) was 26.9 µM. The growth at 100 µM [26] was -34%, the growth at 1 µM [27] was 83% and the growth at 1 µM [28] was 85%. For the same compound, the growth at 0.01 µM [29] was 93%, the growth at 1 µM [30] was 102% and the GI50 ([31]; read-out: GI50) was 12.8 µM. It also gave a CC50 [31, 39] of 80.2 µM, a TGI ([31]; read-out: TGI) of 32 µM and a GI50 ([31]; read-out: pGI50 (converted)) of 12.9 µM. For the same compound, the CC50 [31, 40] was 79.4 µM, the TGI ([31]; read-out: pTGI (converted)) was 32.4 µM and the GI50 ([32]; read-out: GI50) was 1.56 µM. For the same compound, the LC50 (50% lethal concentration) ([32]; read-out: LC50) was over 100 µM, the TGI ([32]; read-out: TGI) was 19.2 µM and the GI50 ([32]; read-out: pGI50 (converted)) was 1.55 µM. The LC50 (50% lethal concentration) ([32]; read-out: pLC50 (converted)) was over 100 µM, the TGI ([32]; read-out: pTGI (converted)) was 19.1 µM and the growth at 0.01 µM [33] was 96%. It also gave a growth at 0.1 µM [34] of 96%, a GI50 ([35]; read-out: GI50) of 11.9 µM and a CC50 [35, 39] of over 100 µM. It also gave a TGI ([35]; read-out: TGI) of 48.4 µM, a GI50 ([35]; read-out: pGI50 (converted)) of 12 µM and a CC50 [35, 40] of over 100 µM. The TGI ([35]; read-out: pTGI (converted)) was 47.9 µM, the growth at 1 µM [36] was 78% and the growth at 0.1 µM [37] was 97%. It also gave a growth at 1 µM [38] of 67%.

Reference: ChEMBL document CHEMBL2413072, “Synthesis and in vitro anticancer studies of novel C-2 arylidene congeners of lantadenes” (2013)
